Patent US9291621B2, “AGER-peptides and use thereof” (AbbVie Deutschland GmbH & Co. KG, priority 2005, dated 2016)

Columns and labels:
[1] = biological target: T1, sRAGE-6×HIS (amino acids 23-352, NP_001127) (Homo sapiens, UniProt Q15109); assay: AlphaScreen measurement of peptide binding to sRAGE; settings: for binding to the receptor (AlphaScreen): biotinylated control peptides 0, 10, 30, 100, 300 nM
T1 construct: fusion protein sRAGE-6×HIS (amino acids 23-352, NP_001127); made in house
Description: The entire homogeneous assay was carried out in 25 mM HEPES, 100 mM NaCl of pH 7.4 and 0.1% BSA in a volume of 20 μl.
(§1) The individual components were brought together in a defined time sequence. […] The various amounts of peptide were then added in order, after a further 30 minutes, to add the donor beads. After a further 60 minutes, the fluorescence was measured in the AlphaQuest instrument from Perkin-Elmer with a time lag of one second. Each measured point was determined as triplicate. The analysis and graphical workup of the results took place with the GraphPrism 4.0 software package.
The binding to the RAGE receptor was measured by employing the AlphaScreen™ System (order number: 6760610M) from Perkin Elmer (Shelton, Conn., USA).
The assay was carried out by the manufacturer's protocol in 25 mM HEPES, 100 mM NaCl of pH 7.4 and 0.1% BSA in a volume of 20 μl. The mixture comprised 2.5 ng/μl of the fusion protein sRAGE-6×HIS (amino acids 23-352, NP_001127), 20 ng/μl anti-HIS acceptor beads, 20 ng/μl streptavidin donor beads and the biotinylated peptides in concentrations of 0, 10, 30, 100, and 300 nM. The peptides, with the exception of AR 1-42 oligomers, were heated at 50° C. for 10 minutes immediately before the test in order to loosen possible aggregations.
as §1, with “evaluation” for “analysis”

[2] = test system: HEK293 RhoA/NgR/p75 cells; assay: Functional actin cytoskeletal rearrangement (ACR) assay; assay type: cell-based, human; settings: preincubation 0.2, 1, 5 μM; stimulation with AP-Nogo-66 (9.6 μg/ml)
Description: 1×10^4 cells were […] into microtiter plates with 96 wells two days before the stimulation. The cells were stimulated with a suitable reagent (e.g. LPA or AP-Nogo-66) in culture medium (RPMI-Glutamax) comprising 5% FCS. After a stimulation period of 5 to 10 minutes, the activation was stopped with cold PBS. The cells were fixed with 3-4% strength paraformaldehyde solution, permeabilized with PBS comprising 0.2% Triton X-100, and incubated with phalloidin Alexa 568 or 488 for 30-45 minutes. Incubation with DAPI additionally took place for 5 minutes for nuclear staining. The cells were visualized with the aid of an epifluorescence microscope (Axiovert 25).
1×10^4 Hek293 RhoA/NgR/p75 cells were transferred into MTP Biocoat microtiter plates with 96 wells two days before the actual start of the test. […] The cells were stimulated with the NgR ligand AP-Nogo-66 (9.6 μg/ml) in culture medium comprising 5% FCS. An unstimulated control mixture (without AP-Nogo66) was prepared for each series of tests. After a stimulation period of 5 to 10 minutes, the activation was stopped with cold PBS. […] were recorded with a cooled CCD camera from Zeiss, and the percentage content of contracted cells, based on the total cell count, was found.

[3] = test system: hippocampal sections (CA1 region); assay: Excitatory synaptic transmission and long-term potentiation in hippocampal sections; assay type: cell-based, male Wistar rats; settings: for effect on short-term and long-term potentiation: theta burst stimulation, p=0.016 (NtermR31), p=0.794 (scraNtermR31), repeated measures ANOVA
Description: 400 μm-thick transverse hippocampal sections from 7-8-week-old male Wistar rats (Harlan Winkelmann, Bochum, Germany) were prepared using a tissue chopper and equilibrated for at least 1 hour at 33° C. in Carbogen-gassed artificial cerebrospinal fluid (aCSF) of the following composition: NaCl 124 mM; KCl 4.9 mM; MgSO4 1.3 mM; CaCl2 2.5 mM; KH2PO4 1.2 mM; NaHCO3 25.6 mM; glucose 10 mM; pH 7.4. Recordings were made from the section immersed in Carbogen-gassed artificial cerebrospinal fluid (aCSF) of the same composition.
Stimulation of the Schaffer collaterals took place in the stratum radiatum using a monopolar stimulating electrode with biphasic pulse (voltage range 1-5 V). Excitatory post-synaptic potentials (EPSPs) were recorded in the stratum radiatum using aCSF-filled glass electrodes against a chlorinated silver reference electrode (bath). These reflect in particular the strength of the glutamatergic synaptic transmission.
The values were determined from the gradient of the field EPSPs recorded every 5 min for a period of 120 minutes before and 120 minutes after LTP induction. LTP was induced by so-called theta burst stimulation (4×2 pulses at an interval of 200 ms with a double-pulse interval of 10 ms). […]

[4] = biological target: sRAGE/Aβ globulomer interaction (Homo sapiens, UniProt P05067); settings: for inhibition of Aβ oligomer binding to sRAGE: increasing peptide concentrations, Aβ 1/5 biotin globulomer 800 nM
Description: The HTRF donor and acceptor components, Anti6HIS europium cryptate (CIS Bio catalogue number: 61HISKLA; 500 wells/13 μg) and streptavidin XL-665 (CIS Bio catalogue number: 61HISAXLA, 500 wells/250 μg) were each dissolved in 250 μl of dd H2O, Starting from these stock solutions, 1:50 working dilutions were prepared with a final concentration of 7.4 nM Anti6His cryptates and 121.2 nM streptavidin XL-665 in PBS, 0.1% BSA, pH 7.4.
Working solutions of peptides 6 and 7 were prepared with concentrations of 200 μM, 100 μM, 50 μM, 25 μM, 12.5 μM, 6.25 μM, 3.125 μM, 1.56 μM and 0.78 μM.
To carry out the tests, initially 4 μl of the working solutions of each of peptides 6 and 7, and of a buffer control, were mixed with 4 μl of a 4 μM stock solution of the Aβ 1/5 biotin globulomer (final assay concentration 800 nM) and incubated at room temperature for one hour. The A beta 1/5 biotin globulomer concentration indicated here is based on the Aβ 1-42 monomers which were used to prepare the globulomers.
2 μl portions of the 7.4 nM Anti6His cryptates and of the 121.2 nM streptavidin solution described above were added in order then to incubate this mixture, now at 4° C., for a further two hours. After addition of 4 μl of a 2M KF stock solution, the complete mixture was measured in a BMG Pherastar fluorescence measuring instrument (BMG Labtech GmbH, Offenburg, Germany) in HTRF mode. Separate measurements without peptide were carried out for the max-signal curve. For the background curve, measurements were used with in each case only the AntiGHIS cryptates and strepavidin XL solutions. The calculated % DeltaF values were transferred into GraphPad Prism 4 (GraphPad Software, San Diego, USA) and evaluated. The concentrations indicated in the graphs are based on the final concentration of the complete 20 μl mixture.

[5] = biotinylated control peptides 0-300 nM

T1 sequence (Q15109 with tags, fused parts or gaps): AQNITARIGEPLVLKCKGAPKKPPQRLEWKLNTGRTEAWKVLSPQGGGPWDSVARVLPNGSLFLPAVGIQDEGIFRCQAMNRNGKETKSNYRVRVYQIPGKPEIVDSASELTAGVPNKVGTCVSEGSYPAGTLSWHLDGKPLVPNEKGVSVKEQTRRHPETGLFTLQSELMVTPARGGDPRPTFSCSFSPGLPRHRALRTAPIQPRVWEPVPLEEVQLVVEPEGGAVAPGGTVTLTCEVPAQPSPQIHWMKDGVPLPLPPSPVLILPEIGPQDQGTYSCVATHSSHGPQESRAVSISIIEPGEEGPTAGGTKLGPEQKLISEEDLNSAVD
Chain of sRAGE/Aβ globulomer interaction (P05067 672-713 limits assumed): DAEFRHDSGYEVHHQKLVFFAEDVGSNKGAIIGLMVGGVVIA

Substance: E T E D S D T [Minus7]
- binding to the receptor (AlphaScreen) [1]: no bonding

Substance: F P V I P A L F W I V L M [Unpol13]
- binding to the receptor (AlphaScreen) [1]: no bonding

Substance: QNITARIGEPLVLKCKGAPKKPPQRLEWKLN [NtermR31]
- percentage content of contracted HEK cells [2]: concentration-dependent reduction
- input/output ratio ([3]; 500 nM): unaffected
- effect on short-term and long-term potentiation ([3]; 500 nM): distinctly suppresses
- effect on basal synaptic transmission ([3]; application for 90 minutes): no effect

Substance: GKPRAPKCLKPEQ [ScraNtermR13]
- affinity to sRAGE compared with NtermR13 [1, 5]: same or slightly higher affinity
- maximum signal intensity in the test [1, 5]: highest maximum signal intensity

Substance: R L K R G H A [Plus7]
- maximum signal intensity in the test [1, 5]: highest maximum signal intensity

Substance: APLACPRELIKGKWEVKPKRNPKNQLTIGQL [ScraNtermR31]
- effect on short-term and long-term potentiation ([3]; 500 nM): no effect

Substance: LPRHRALRTAPIQPRVWEPVPLEEVQLVVE [peptide 7]
- inhibitory activity, peptide 7 compared with peptide 6 [4]: more pronounced
- inhibition of Aβ oligomer binding to sRAGE [4]: Inhibition

Substance: TLQSELMVTPARGGDPRPTFSCSFSPGLPR [peptide 6]
- inhibition of Aβ oligomer binding to sRAGE [4]: Inhibition

Substance: F S R I R A T H W R V D G [AlterCharge1]
- binding to the receptor (AlphaScreen) [1]: binding
